# Literature values in patent publication US20240165053A1, “Topical Medicament for Use in Treatment of Anorectal Inflammation” (priority 2022, published 2024).
# Test system: swollen hemorrhoids
smiles,measurement,setting,value
"OC[C@H]1O[C@@](CO)(O[C@H]2O[C@H](CO)[C@@H](O)[C@H](O)[C@H]2O)[C@@H](O)[C@@H]1O [granulated sugar, Sucrose]",time of application after which the difference is noticeable with the naked eye,topical application on prolapsed hemorrhoids,10 min
same,edema reduction of swollen hemorrhoids,"topical application, medical studies",immediate edema reduction
